The values that follow come from patent US20230023009A1, “HETEROCYCLIC COMPOUNDS AND METHODS OF USE THEREOF” (SPARCBIO LLC, priority 2020, published 2023).

One assay has as its target KRAS G12C protein (Homo sapiens, UniProt P01116, G12C). Nature of the assay: Nucleotide exchange assay (Method III, KRAS G12C/Raf-RBD TR-FRET). The format is biochemical. Particulars: SOS1-mediated exchange of GDP for GTP, 18 hr compound incubation. As for the experimental part:
Method III. Inhibition of SOS1-mediated exchange of GDP for GTP on the KRAS G12C protein was measured in a biochemical assay that monitors association of KRAS G12C protein with the Ras-binding domain of Raf (Raf-RBD), where the association is coupled to exchange of GDP to GTP on the KRAS G12C protein. The assay was performed at WuXi AppTec (Shanghai, China). Compounds were serially diluted in 3-fold dilutions to 11 concentrations and spotted into the wells of an assay plate in a total volume of 150 nL DMSO per well. A 2× enzyme mix was prepared by diluting GDP-bound, His-tagged KRAS G12C to 25 nM in assay buffer. 10 μL/well of 2× enzyme mix was added to all wells, and the plate was sealed and incubated overnight (18 hr) at 23° C. 4×SOS1/GDP and 4×SOS1/GTP were prepared in assay buffer. 5 μL/well of 4×SOS1/GDP mix was added to negative control wells, 5 μL/well of 4×SOS1/GTP mix was added to the remaining wells, and the plate was further incubated at 23° C. for 1 hr. Finally, FLAG-tagged Raf-RBD is added to the reaction mixture along with a pair of FRET donor- and acceptor-conjugated antibodies specific for the FLAG-tagged Raf-RBD and His-tagged KRAS G12C proteins. A 4×Raf-RBD/Tb-anti-FLAG/D2-anti-His mix was prepared in assay buffer, and 5 μL/well of the mix was added to all wells, followed by incubation at room temperature for 2 hr. The TR-FRET signals, which increase with association of KRAS G12C and Raf-RBD, were measured on a Perkin Elmer Envision 2104 plate reader, and data were analyzed by non-linear regression to obtain IC50 values for inhibition by compounds. Table 2 includes results of the assay of Method III. ‘+++’ indicates IC50 values≤300 nM, ‘++’ indicates IC50 values between 300 nM-3 μM, and ‘+’ indicates IC50 values≥3 μM.

A further assay concerns NCI-H358 cells. Nature of the assay: 3D cell proliferation assay (Cell Titer-Glo 3D, 7 days). The format is cell-based. Particulars: Homo sapiens, NCI-H358, 168 h, NCI-H358 3D, ultra-low attachment plate. As for the experimental part:
NCI-H358 cells (ATCC® CRL-5807™) were plated in a 384-well Black/Clear Round Bottom Ultra-Low Attachment Microplate (Corning) in medium (RPMI-1640+10% FBS) at a density of 1000 cells in 50 μL per well, then incubated overnight at 37° C. and 5% CO2. Cells were treated with test compounds at 9 concentrations within a specified concentration range (e.g., 0.5 nM-10 μM) for generation of dose response curves. Test compounds were prepared by 1:3 serial dilution in DMSO from a specified starting concentration (e.g., 20 μM, 2 μM or 0.2 μM) and then added to wells of the assay plate in a total volume of 150 nL DMSO. The cells were further incubated at 37° C. and 5% CO2 for 7 days. Cell viability was assessed by adding 40 μL of Cell Titer-Glo® 3D reagent (Cat. No.: G9683, Promega) to each well and reading luminescence after mixing and incubation of the samples. The IC50 value of each test compound was calculated with XLFit curve fitting software.

Assay [1] concerns NCI-H358 subcutaneous xenograft tumors. In words: NCI-H358 mouse xenograft model.
Description: NCI-H358 cells were injected subcutaneously (5×10^6 cells in 0.1 mL of PBS) into the right flanks of 6-8-week-old female BALB/c nude mice and allowed to grow until the average tumor size reached 150-200 mm^3. The mice were then stratified into treatment groups of 4-8 animals and treatment initiated on Day 0. Test compound or vehicle (1% Tween 80, 2% HPMC, and 97% water) was administered orally, once daily, for 21 days. Tumor size was measured twice weekly in two dimensions using a caliper, and the volume was expressed in mm^3 using the formula: V=(a×b^2/2) where a and b are the long and short diameters of the tumor, respectively. Tumor Growth Inhibition (TGI) was calculated for each group using the formula: TGI %=(1−Ti/Vi)×100, where Ti is the mean tumor volume of the treatment group on the measurement day, and Vi is the mean tumor volume of the control group on the measurement day. Animal body weight was monitored regularly as an indicator of toxicity. […] Data points represent the group mean, and error bars represent the standard error of the mean (SEM).
A further assay deals with MIA PaCa-2. Nature of the assay: Cell proliferation assay panel (Cell Titer-Glo, 72 hr). The format is cell-based. The settings on record: Homo sapiens, MIA PaCa-2, 72 h. As for the experimental part:
Potency of compounds was determined in cell proliferation assays in a panel of cancer cell lines. Cells were seeded in 384-well plates (Corning, Cat. #3765) at specified densities in 40 μL of culture medium and incubated overnight at 37° C. in a 5% CO2 incubator (culture conditions). With a robotic dispenser, serially diluted test compounds were added in a volume of 20 nL DMSO to wells in the culture plate to achieve the final desired concentrations of test compounds, and the cells were further incubated in culture conditions for 72 hr. The assay was terminated by addition of 25 μL of Cell Titer-Glo reagent (Promega, Madison, Wis.) to each well. Contents were mixed, the plate was incubated for 10 min at room temperature and luminescence was measured. The IC50 value of each test compound was calculated with XLFit curve fitting software. Results are shown in Table 4. ‘+++’ indicates IC50 values≤300 nM, ‘++’ indicates IC50 values between 300 nM-3 μM, and ‘+’ indicates IC50 values≥3 μM.

In assay [2] the test system is Phosphorylation of ERK in NCI-H358 cells. Nature of the assay: pERK assay (Method II, homogeneous TR-FRET). The format is cell-based. Particulars: Homo sapiens, 4 hrs compound treatment. As for the experimental part: Method II. Phosphorylation of ERK was assessed by a homogeneous TR-FRET assay (Advanced phospho-ERK (Thr202/Tyr204) cellular kit; Cat. #64AERPEH, Cisbio). In brief, NCI-H358 cells were seeded in a 384-well culture plate at a density of 6000 cells in 40 μL medium/well and grown overnight at 37° C. and 5% CO2. Each test compound was dosed in duplicate in a 10-dose 3-fold titration starting at 10 μM or 2 μM. The culture plate was then incubated for 4 hrs in the incubator. At the end of the compound treatment, the medium was removed, 35 μL of lysis buffer was added to each well, and the plate was agitated on a plate shaker for 40 mins at 4° C. An antibody cocktail of phospho-ERK1/2 Eu Cryptate antibody and Phospho-ERK1/2 d2 antibody was prepared by separately diluting the antibodies 20-fold with detection buffer and then mixing them together. 3.4 μL of antibody cocktail was dispensed to each well of an empty 384-well white ProxiPlus assay plate (Perkin Elmer), and the plate briefly centrifuged. 13.6 μL of cell lysate was then added to the antibody-containing wells, and the plate was briefly centrifuged and then incubated 2 hrs at room temperature. The plate was read on a fluorescence plate reader (Envision2104, Perkin Elmer), with an excitation wavelength of 337 nm and emission wavelengths of 615 nm and 665 nm. The IC50 value of each test compound was calculated with XLFit curve fitting software. Results are shown in Table 6. ‘+++’ indicates IC50 values≤300 nM, ‘++’ indicates IC50 values between 300 nM-3 μM, and ‘+’ indicates IC50 values≥3 μM.

Sequence of KRAS G12C protein (P01116 1-188 isoform P01116-2 G12C): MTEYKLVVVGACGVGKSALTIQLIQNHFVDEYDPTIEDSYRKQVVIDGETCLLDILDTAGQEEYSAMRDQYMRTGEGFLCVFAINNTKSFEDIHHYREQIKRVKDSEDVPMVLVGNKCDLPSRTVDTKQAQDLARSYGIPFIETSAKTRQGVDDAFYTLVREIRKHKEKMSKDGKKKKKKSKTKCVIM

With `C=CC(=O)N1CCN(c2nc(OC[C@@H]3CCCN3C)nc3c2COC(c2cccc4cccc(Cl)c24)C3)C[C@@H]1CC#N` (single isomer, unassigned) [38 (Isomer B)], the IC50 on KRAS G12C protein is at most 300 nM; in the assay with NCI-H358 cells, at most 100 nM. Besides, the TGI in assay [1] (10 mg/kg orally once daily, Day 20 after treatment start) is given as 22.4%; in assay [1] (30 mg/kg orally once daily, Day 20 after treatment start (day not restated for comparators)) it was 26.7%; in assay [1] (100 mg/kg orally once daily, Day 20 after treatment start), 50.4%.

As to `C=C(F)C(=O)N1CCN(c2nc(OC[C@@H]3CCCN3C)nc3c2COC(c2c(C)ccc4[nH]ncc24)C3)C[C@@H]1CC#N` (single isomer, unassigned) [52 (Isomer B)], the IC50 on KRAS G12C protein is at most 300 nM; with MIA PaCa-2, 300 to 3000 nM; in the assay with NCI-H358 cells, 100 to 2000 nM; in assay [2], 300 to 3000 nM.

As for `C/C=C/C(=O)N1CCN(c2nc(OC[C@@H]3CCCN3C)nc3c2COC(c2cccc4cccc(Cl)c24)C3)C[C@@H]1CC#N` (single isomer, unassigned) [241 (Isomer A)], the IC50 on KRAS G12C protein was at most 300 nM; in the assay with MIA PaCa-2, 300 to 3000 nM; with NCI-H358 cells, at most 100 nM; in assay [2] it was at most 300 nM.

On to `CC#CC(=O)N1CCN(c2nc(OC[C@@H]3CCCN3C)nc3c2COC(c2cccc4cccc(Cl)c24)C3)C[C@@H]1CC#N` (single isomer, unassigned) [243 (Isomer B)], for which the IC50 was at most 300 nM on KRAS G12C protein, at most 300 nM with MIA PaCa-2, at most 100 nM in the assay with NCI-H358 cells and at most 300 nM in assay [2].
